# Measurements from patent US11013232B2, “Hydrotesting and mothballing composition and method of using combination products for multifunctional water treatment” (priority 2014, dated 2021).
# Tests used:
# Type in all cases: cell-based, mixed consortia isolated from seawater
# [1] = system: General Heterotrophic Bacteria (GHB); assay: Most Probable Number (MPN) bacterial kill efficacy, GHB; conditions: first MPN set; for GHB per mL: formulation with ammonium bisulfide, 500 ppm active biocide; for log reduction of planktonic GHB: exposure time of 24 hours
# Method: (§1) The Most Probably Number technique using a bacterial enumeration technique was performed, as described in NACE International Standard TMP 194-2004. Complex mixed consortia were isolated from seawater and subjected to the chemicals being tested. All chemicals were applied at the same active concentration. Surviving cells were assayed after exposure periods of 1, 7 and 28 days to the numbers compared with a control which received no treatments. The bottle tests were carried out using two mixed consortia—Sulfate Reducing Bacteria (SRB) and General Heterotrophic Bacteria (GHB) that also measured Acid Producing Bacteria (APB) enriched from seawater. Aliquots of the water (1 mL) were inoculated into SRB culture medium and GHB culture medium (Phenol Red Dextrose broth) respectively and sub-cultured twice. The cultures used in the tests were incubated at 30° C. for five days; these were then used to supplement seawater to achieve 10^3 to 10^4 SRB cells per mL. For the trial one control bottle and four test bottles were set up. The chemicals were added to the appropriate test bottles to give the final concentrations of each product as supplied. All chemicals were added so that 500 ppm of active biocide was present in each test. The control bottle contained seawater only with no added chemical.
# (§2) At each time point, (one, seven and twenty-eight days), a sample was removed from each test bottle and the control bottle and used to inoculate the MPN vials. Bacterial counts were performed using the triplicate Most Probable Number method (triplicate MPNs). The inoculated MPN vials were incubated at 30° C. for 7 days for GHB and APB and 28 days for SRB. Results have been reported as cells per mL. […]
# [2] = system: Acid Producing Bacteria (APB); assay: Most Probable Number (MPN) bacterial kill efficacy, APB; conditions: first MPN set; for APB per mL: formulation with ammonium bisulfide, 500 ppm active biocide
# Method: as §1, §2
# [3] = system: Sulfate Reducing Bacteria (SRB); assay: Most Probable Number (MPN) bacterial kill efficacy, SRB; conditions: first MPN set; for SRB per mL: formulation with ammonium bisulfide, 500 ppm active biocide
# Method: as §1, §2
Compound,GHB per mL ([1]; 24 h exposure) [cells per mL],GHB per mL ([1]; 7 d exposure) [cells per mL],GHB per mL ([1]; 28 d exposure) [cells per mL],further log reduction of GHB numbers ([1]; after 28 days) [log],log reduction of planktonic GHB [1] [log],APB per mL ([2]; 24 h exposure) [cells per mL],APB per mL ([2]; 7 d exposure) [cells per mL],APB per mL ([2]; 28 d exposure) [cells per mL],SRB per mL ([3]; 24 h exposure) [cells per mL],SRB per mL ([3]; 7 d exposure) [cells per mL],SRB per mL ([3]; 28 d exposure) [cells per mL],log reduction of APB numbers ([2]; exposure time of 24 hours) [log],log reduction of planktonic SRB ([3]; exposure time of 24 hours)
"CC1CN(CN2COC(C)C2)CO1 (centres unmarked) [MBMO, N, N′-Methylene bis(5-methyloxazolidine)]",9.5E+03,4.5E+03,2.5E+02,2,1,7.5E+02,7.5E+02,4.5E+01,9.5E+03,4.0E+01,1.0E+00,–,–
"CN1CSC(=S)N(C)C1 [Dazomat, Tetrahydro-3,5-dimethyl-2H-1,3,5-thiadiazine-2-thione]",4.5E+02,4.5E+03,2.5E+05,–,2.5,2.5E+02,2.5E+02,4.5E+02,2.5E+04,2.0E+02,1.0E+00,0.5,did not result in a significant reduction
